US20180332881A1, “PRETERM INFANT FORMULA […] AND USES THEREOF” (Mead Johnson Nutrition Company, priority 2017, published 2018)

Tested on: oligodendrocyte precursor cells (OPCs)
Test: Differentiation of purified oligodendrocyte precursor cells (OPCs) into mature oligodendric cells (MBP / PDGFRα immunostaining)
Assay type: cell-based, rat
Conditions: 48 hours
Method: The OPCs were purified from P7 rat brain cortices. Rodent brain cortices were diced and dissociated with papain at 37° C. After trituration, […] were resuspended in a panning buffer and incubated at room temperature sequentially on the three immunopanning dishes: Ran-2 and GalC were used for negative selection before positive selection with 04. OPCs were released from the panning dish using 0.05% Trypsin. OPCs were seeded onto PPL-coated coverslips at 200,000 per 25 mm circle coverslip in a chemically defined culture medium with PDGFa overnight.
Sodium Butyrate (NaB) was dissolved in sterile water and added into culture medium the next day to reach desire concentration. OPC coverslips were placed into 6-well dishes, 1 ml of NaB-containing culture medium without PDGFα was added to each well. Cells were cultured for 48 hours before fixation and immunostaining. PDGFRα antibody identifies OPCs and MBP (myelin basic protein) antibody labels differentiated oligodendrocytes. Percentage of MBP-positive cells out of all PDGFRα- and MBP-positives cells were quantified.
Examining a dose response for sodium butyrate on purified oligodendroglial cultures. Sodium butyrate was added to purified oligodendroglial cultures and cells were analyzed after 48 hours of treatment for effects on survival, proliferation and differentiation. Oligodendrocyte precursor cells were immunostained with PDGFRα shown in green, oligodendrocytes were immunostained with MBP in red, cell nuclei were labeled with DAPI in blue. Percentage of MBP-positive oligodendrocytes among all oligodendroglial cells was quantified at various concentrations of sodium butyrate. The asterisks represent significance based on Students t-test with the respective controls (*p<0.05, **p<0.01)

SMILES: CCCC(=O)[O-].[Na+] [sodium butyrate, Sodium Butyrate]
- effect to promote OPC to differentiate into mature oligodendric cells (dose response) (50 nM to 250 μM): dose-dependent manner
- number of oligodendric cells from OPC compared to the control (MBP immunohistochemistry, FIG. 7) (250 μM sodium butyrate): statistically significant increase
- fold increase in the numbers of differentiated and matured oligodendric cells as compared to the control (250 μM sodium butyrate, OPCs from P7 rat brain cortices): 2.6 fold
- increase in Oligo cells (percentage of MBP-positive cells) as compared to the control (each of the concentrations tested (50 nM, 500 nM, 5 μM, 50 μM, 250 μM)): statistically significant increase
